{
  "source": "paper PMC12081497",
  "about": "“Design, synthesis, and anti-breast cancer activity evaluation of novel 3-cyanopyridine derivatives as PIM-1 inhibitors” (Molecular Diversity, 2024)",
  "key": {"[1]": {"system": "MCF-7 cells", "assay": "Apoptosis assay, Annexin V/PI flow cytometry", "format": "cell-based, human", "settings": "MCF-7, 24 h", "procedure": "Compound 7h was chosen to investigate its abilities in inducing cancer cell apoptosis. Cell cycle analysis of MCF-7 after treatment with compound 7h. To corroborate the ability of the compound to induce apoptosis, cells were stained with Annexin V/PI, incubated for 24 h, and analyzed.\nThe MCF-7 was treated with compound 7h for 24 h. After treatment, the cells were suspended in 0.5 mL of PBS, collected by centrifugation, and fixed in ice-cold 70% (v/ v) ethanol, centrifuged the ethanol-suspended cells for 5 min, suspended in 5 mL PBS and centrifuged for 5 min, re-suspended with 1 mL PI staining solution (0.1 mg/ml RNase) + PE Annexin V (component no. 51-65875X) and kept in dark at 37 °C for 10 min, finally analyzed by flow cytometry using FACS caliber (Becton Dickinson). The cell cycle distributions were calculated using Phoenix Flow Systems and Verity Software House."}, "[2]": {"target": "T1, PIM-1 kinase (Homo sapiens, UniProt P11309)", "T1 construct": "purchased Promega V4032", "T1 sequence (P11309 whole entry)": "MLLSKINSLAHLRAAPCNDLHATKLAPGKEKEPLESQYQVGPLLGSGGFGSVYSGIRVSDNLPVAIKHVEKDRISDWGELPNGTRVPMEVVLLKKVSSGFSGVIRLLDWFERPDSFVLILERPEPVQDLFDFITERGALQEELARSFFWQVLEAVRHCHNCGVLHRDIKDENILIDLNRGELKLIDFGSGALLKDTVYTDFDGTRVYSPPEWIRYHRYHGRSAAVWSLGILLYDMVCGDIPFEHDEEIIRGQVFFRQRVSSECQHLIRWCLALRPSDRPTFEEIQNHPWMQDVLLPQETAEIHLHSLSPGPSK", "assay": "PIM-1 kinase inhibition assay (Promega PIM-1 kinase assay kit, ADP-Glo)", "format": "biochemical", "settings": "concentrations 10, 1, 0.1 and 0.01 µM, read-out: PIM1-Kinase IC50"}, "[3]": {"system": "MCF-7 human cancer cell line", "assay": "In vitro anti-proliferative MTT assay", "format": "cell-based", "settings": "MTT, MCF-7, 48 h treatment, read-out: Cytotoxicity IC50, SD (±), MCF7", "procedure": "In the present study, all synthesized cyanopyridine hybrids were subjected to in vitro cytotoxicity testing using the MTT assay method against MCF-7 human cancer.\nAll cell lines were maintained in RPMI1640 medium containing 10% FBS at 37 °C in 5% CO2 humidified incubator. Cell proliferation assay was determined by the MTT (3-[4,5-dimethyl-2-thiazolyl]-2,5- diphenyl-2H-tetrazolium bromide) method. Briefly, cells were plated in triplicate wells (3–5 × 10^4 cells/well) of 96-well flat-bottomed plates and incubated overnight prior to drug exposure and then treated with different concentrations of the tested compounds for 48 h. After that, 20 μL of MTT reagent at a final concentration of 0.5 mg/mL was added to each well. Cells were then incubated for 2 h with MTT, after which 100 μL of DMSO solution was added to dissolve the formazan salt resulting from the reduction of MTT and the absorbance was read at 570 nm using an automatic plate reader. The IC50 values were calculated according to inhibition ratios from three independent experiments."}, "[4]": {"system": "MCF-7 cells", "assay": "Flow cytometric cell cycle analysis", "format": "cell-based, human", "settings": "for Cell cycle comment (phase of arrest): MCF-7, 24 h", "procedure": "The cell cycle encompasses four distinct phases: G1 phase, S phase (synthesis), G2 phase, and M phase. During G1, cellular amplification and preparation for DNA replication take place. The S phase involves DNA replication and chromatid duplication. In the G2 phase, DNA repair and further growth occur. The M phase is characterized by nuclear division. The investigation of the impact of compound 7h on cell cycle progression and the induction of apoptosis in MCF-7 cells. […] Subsequently, the cells were stained with PI/Annexin V and analyzed using flow cytometry (BD FASCCalibur). Upon analyzing the results (Table 3, Fig. 6), it was evident that the percentage of cell accumulation in the S phase increased in MCF-7 cells treated with compound 7h after 24 h of incubation.\nCell cycle analysis MCF-7 cell was seeded into six-well plates at a density of 2 × 10^5 cell per well and incubated for 24 h. The cell was cultured in RPMI 1640 supplemented with fetal bovine serum (FBS, 10%) and incubated at 37 °C and 5% CO2. The medium was removed and replaced with medium (final DMSO concentration, 1% v/v) containing compound 7h (0.283 µM). After incubation for 24 h and 48 h, the cell layer was trypsinized and washed with cold phosphate buffered saline (PBS) and fixed with 70% ethanol. The fixed cells were rinsed with PBS and then stained with the DNA fluorochrome PI in a solution containing Triton X-100 as well as RNase, keep 15 min at 37 °C according to the instruction manual. Then the samples were analyzed with a FACS Caliber flow cytometer (Becton Dickinson & Co., Franklin Lakes, NJ). The number of cells analyzed for each sample was 10,000 [39]."}},
  "note": "Entries after “also recorded” stand apart in the source; their conditions may differ. Like-named read-outs stand apart in the source and are kept apart here.",
  "data": [
    {"molecule": "COc1cc(-c2cc(-c3cccnc3)[nH]c(=O)c2C#N)ccc1OCC(=O)Nc1ccccc1", "note": "[7h, 2-(4-(3-Cyano-2-oxo-6-(pyridin-3-yl)-1,2-dihydropyridin-4-yl)-2-methoxyphenoxy)-N-phenylacetamide]", "values": [
      {"measurement": "melting point", "value": "295 to 297", "unit": "°C"},
      {"measurement": "Apoptosis Late", "setting": "[1]; control 0.27", "value": 22.81, "unit": "%"},
      {"measurement": "Apoptosis Early", "setting": "[1]; control 0.41", "value": 15.42, "unit": "%"},
      {"measurement": "Necrosis", "setting": "[1]; control 1.61", "value": 3.95, "unit": "%"},
      {"measurement": "Apoptosis Total", "setting": "[1]; control 2.29", "value": 42.18, "unit": "%"},
      {"measurement": "IC50", "setting": "[2]", "value": "281 ± 12", "unit": "nM"},
      {"measurement": "IC50", "setting": "[3]; Homo sapiens, MCF7, 48 h", "value": 1890, "unit": "nM"},
      {"measurement": "IC50", "setting": "[3]", "value": "1890 ± 80", "unit": "nM"},
      {"measurement": "Cell cycle comment (phase of arrest)", "setting": "[4]", "value": "arrested the tumor cells at the S phase; also recorded: cell cycle arrest at the S phase"},
      {"measurement": "Cell cycle comment (phase of arrest)", "setting": "[4]; listed as 7 h", "value": "Cell growth arrest@ S"},
      {"measurement": "DNA content %G2/M", "setting": "[4]; MCF-7, IC50 concentration of 7h, 24 h, control 13.14", "value": 12.11, "unit": "%"},
      {"measurement": "DNA content %S", "setting": "[4]; MCF-7, IC50 concentration of 7h, 24 h, control 25.83", "value": 33.61, "unit": "%"},
      {"measurement": "DNA content %G0-G1", "setting": "[4]; MCF-7, IC50 concentration of 7h, 24 h, control 61.03", "value": 54.28, "unit": "%"}
    ]}
  ]
}
